Measured values taken from PMC9032233, “2-{5-[(Z,2Z)-2-Chloro-3-(4-nitrophenyl)-2-propenylidene]-4-oxo-2-thioxothiazolidin-3-yl}-3-methylbutanoic Acid as a Potential Anti-Breast Cancer Molecule” (International Journal of Molecular Sciences, 2022).

What was measured:
LC3B [1] = experiment: LC3B concentration in MDA-MB-231 cell lysates (ELISA); format: cell-based, human; conditions: MDA-MB-231, 5 mM, 24 h; control 1.504 ng/mL
Experimental: (§1) High sensitivity assay kits (EIAab Science Co., Ltd., Wuhan, China; Abcam plc., Cambridge, United Kingdom; Cloud-Clone Corp., Katy, TX, USA) were used to determine the concentrations of selected proteins in cell lysates […] In brief, after trypsinization, cells were washed thrice with cold PBS and centrifuged at 1000× g for 5 min at 4 °C. Then, cells (1.5 × 10^6) were suspended in lysis buffer for whole-cell lysates. After the second centrifugation, cellular supernatants were frozen immediately at −70 °C. Untreated cancer cells were taken as a control.
(§2) The microtiter plates provided in the kits were pre-coated with an antibody specific to the analyzed antigen. The tests were carried out according to the manufacturer’s protocols.

LC3A [2] = experiment: LC3A concentration in MCF-7 cell lysates (ELISA); format: cell-based, human; conditions: MCF-7, 5 mM, 24 h; control 6.726 ng/mL
Experimental: as §1, §2

LC3A [3] = experiment: LC3A concentration in MDA-MB-231 cell lysates (ELISA); format: cell-based, human; conditions: MDA-MB-231, 5 mM, 24 h; control 2.965 ng/mL
Experimental: as §1, §2

LC3B [4] = experiment: LC3B concentration in MCF-7 cell lysates (ELISA); format: cell-based, human; conditions: MCF-7, 5 mM, 24 h; control 1.194 ng/mL
Experimental: as §1, §2

Beclin-1 [5] = experiment: Beclin-1 concentration in MDA-MB-231 cell lysates (ELISA); format: cell-based, human; set-up: unit of the concentration uncertain; conditions: MDA-MB-231, 5 (unit uncertain), 24 h; control 3.605 ng/mL
Experimental: as §1, §2

Beclin-1 [6] = experiment: Beclin-1 concentration in MCF-7 cell lysates (ELISA); format: cell-based, human; conditions: 5 mM, 24 h, control 7.965 ng/mL
Experimental: as §1, §2

[7] = Parallel artificial membrane permeability assay (PAMPA); format: in vitro ADME; conditions: 200 µM in PBS pH 7.4, 5 h at RT, read-out: permeability coefficient Pe
Experimental: All in vitro assays used for the evaluation of Les-3331 ADME-Tox parameters were described previously. In brief, for the determination of permeability, Pre-coated PAMPA Plate System Gentest^TM was purchased from Corning (Tewksbury, MA, USA). […] PAMPA plates with compounds added to the donor wells were incubated for 5 h at RT. UPLC-MS Waters ACQUITY—TQD system with the TQ Detector (Waters, Milford, MI, USA) was used next for determination of compounds concentrations in donor and acceptor wells, which were required for calculation of permeability coefficient Pe according to formulas provided by the manufacturer.

Work on Cn1cnc(N)c2ncnc1-2 [3-MA, 3-Methyladenine] yielded an LC3B concentration (LC3B [1]) of 0.628 ng/mL, an LC3A concentration (LC3A [2]) of 4.423 ng/mL and an LC3A concentration (LC3A [3]) of 0.994 ng/mL. It also gave an LC3B concentration (LC3B [4]) of 0.664 ng/mL, a Beclin-1 concentration (Beclin-1 [5]) of 2.399 ng/mL and a Beclin-1 concentration (Beclin-1 [6]) of 6.344 ng/mL.
Molecule Cn1c(=O)c2c(ncn2C)n(C)c1=O [caffeine, reference compound] has a Papp at 5 h, 200 µM [7] of 6.58 ×10⁻⁶ cm/s.
